Results on three molecules are retold here after PubChem BioAssay (NCI).

Some test systems named below: SF-539 CNS; HL-60(TB) leukemia; TK-10 renal; SW-620 colon; SK-MEL-5 melanoma; UACC-62 melanoma; RPMI-8226 leukemia; NCI-H522 lung; LOX IMVI melanoma; U251 CNS.
Experiment in all cases: growth of human tumour cells (NCI), 48 h

Each structure is given as a SMILES string.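 How tested: cells in 96-well plates exposed to compound for 48 hours at five concentrations. The concentration for 50% growth inhibition is given as GI50. TGI is the concentration that stops growth completely.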

In the case of `CN1CCN(Cn2nc(-c3cc(F)c(Cl)cc3Cl)oc2=S)CC1`, the GI50 in the test on SF-539 CNS is 29.9 µM; in the test on HL-60(TB) leukemia it was 78.5 µM; with TK-10 renal, 39.3 µM; with SW-620 colon, 20 µM; in the test with SK-MEL-5 melanoma, 17.4 µM; with UACC-62 melanoma, 21.2 µM. Besides, the GI50 in the test on RPMI-8226 leukemia was 22.7 µM; in the test on NCI-H522 lung, 90.1 µM; in the test with LOX IMVI melanoma, 20.3 µM; with U251 CNS, 35.1 µM. The TGI with SF-539 CNS is 71.5 µM; with HL-60(TB) leukemia, more than 100 µM; with TK-10 renal, more than 100 µM; with SW-620 colon, 39.4 µM; in the test on SK-MEL-5 melanoma it was 33.7 µM; in the test on UACC-62 melanoma, 55.2 µM. Moreover, the TGI is 50.9 µM in the test on RPMI-8226 leukemia, more than 100 µM in the test on NCI-H522 lung, 45.6 µM in the test on LOX IMVI melanoma and more than 100 µM with U251 CNS.

As to `O=c1[nH]c(-c2ccc(Cl)cc2)cc2ccsc12`, the TGI is more than 100 µM in the test on HL-60(TB) leukemia; 8.22 µM in the test on TK-10 renal; more than 100 µM in the test on SW-620 colon; more than 100 µM in the test on SK-MEL-5 melanoma; more than 100 µM with UACC-62 melanoma; 19.1 µM in the test with RPMI-8226 leukemia. Moreover, the TGI in the test with NCI-H522 lung, in the test on LOX IMVI melanoma and in the test on U251 CNS was more than 100 µM throughout.

On to `COc1cccc2c1C(=O)c1c(O)c3c(c(O)c1C2=O)CC(O)(C(C)=O)CC3O` (stereo not drawn), for which the TGI in the test on SF-539 CNS is 21.3 µM; with HL-60(TB) leukemia, 26.5 µM; with SW-620 colon, 32.7 µM; in the test on SK-MEL-5 melanoma, 6.98 µM; with UACC-62 melanoma, 14.4 µM; with RPMI-8226 leukemia, 16.6 µM. Moreover, the TGI came out at 3.09 µM in the test on NCI-H522 lung, 8.7 µM in the test on LOX IMVI melanoma and 14.9 µM in the test on U251 CNS.
